# Data taken from patent US20060039887A1, “Cosmetic or pharmaceutical composition for skin care” (Infinity2 Health Sciences, Inc., priority 2004, published 2006).
# Key:
# [1] = pH of 1 wt % solution in water; assay type: physicochemical; settings: 1 wt % (1%) water solution
# [2] = stability of water solution; assay type: physicochemical
# [3] = Stability of Cu-ATP solution, Hunter Lab L*a*b* color readings; assay type: physicochemical; parameters: key to color reading "L": L* lightness: 100 = white to 0 = black; key to color reading "a": a*: negative = greener, positive = redder; key to color reading "b": b*: negative = bluer, positive = yellower; settings: full light, ambient room temperature
# Excerpt: It should be noted that, where relevant, composition ingredients and the like are provided in weight percentages. Further, where applicable, color measurements were done on a Hunter Lab color meter. This color meter measures color on a scale defined as L*a*b* scale. The term “L” is from 100 to 0, representing white and black colors (lightness and darkness), respectively. A (−) value of “a” indicates a more green color. A (+) value of “a” indicates a more red color. A (−) value of “b” indicates a more blue color. A (+) value of “b” indicates a more yellow color. Various numeric values of “a” and “b” indicate degree of respective colors. Mixed colors are thus indicated by a mixed value of L*a*b* as will be noted in various examples below. The materials used had the following properties. Adenosine triphosphate disodium hydrate (molecular weight 551 Da), glutathione (molecular weight 307 Da), copper gluconate (molecular weight 453 Da, Cu=14%), copper amino acid chelate (copper 12%), fructose-1,6-diphosphate dicalcium (molecular weight 416 Da), zinc gluconate (molecular weight 455 Da, Zn=1 4%), manganese gluconate (molecular weight 445 Da, Mn=12%). The analysis of trace metals quoted in ppm in various examples, as noted below, are within +-10%.
# The solution “C” obtained in Example 2 was stored in a beaker with a plastic film wrapped over it. The solution was stored in full light (fluorescent lamps) under ambient room temperature conditions. The color readings were measured periodically, and any visually observed discolorations, or precipitate formations, if any, were also recorded, as noted below.
# [4] = from water solutions
compound,measurement,setting,value
"Nc1ncnc2c1ncn2[C@@H]1O[C@H](COP(=O)(O)OP(=O)(O)OP(=O)(O)O)[C@@H](O)[C@H]1O [ATP, adenosine triphosphate]",pH of 1 wt % solution in water,[1],2.0
O=C1O[C@H]([C@@H](O)CO)C(O)=C1O [ascorbic acid],stability of water solution,[2],poor
same,pH of 1 wt % solution in water,[1],2.6
O=C(O)[C@H](O)[C@@H](O)[C@H](O)[C@H](O)CO [gluconic acid],pH of 1 wt % solution in water,[1],2.5
Copper ATP [Cu-ATP Solution],"color reading ""L""",[3]; 1 Week,51.35
same,"color reading ""a""",[3]; 1 Week,−35.38
same,"color reading ""b""",[3]; 1 Week,−5.16
same,"color reading ""L""",[3]; 4 Weeks,50.54
same,"color reading ""a""",[3]; 4 Weeks,−36.08
same,"color reading ""b""",[3]; 4 Weeks,−5.56
same,"color reading ""L""",[3]; Initial,53.52
same,"color reading ""a""",[3]; Initial,−33.58
same,"color reading ""b""",[3]; Initial,−4.19
NC(=O)c1cccnc1 [niacinamide],stability of water solution,[2],good
same,pH of 1 wt % solution in water,[1],6.3
NC(=O)c1cccnc1.O=C1O[C@H]([C@@H](O)CO)C(O)=C1O [Niacinamide ascorbate],stability of water solution,[2],good
same,pH of 1 wt % solution in water,[1],3.7
same,absorption into skin,[4],rapidly absorbed
